According to ChEMBL document CHEMBL1130883, “Modeling, synthesis and biological activity of novel antifungal agents (1)” (Bioorg Med Chem Lett, 1998):
Values after ≈ are worked out from the molar mass of the structure shown.

How the values were obtained:
Aspergillus fumigatus [1] = test: Compound was tested in vitro for antifungal activity against Aspergillus fumigatus (CF1004); assay type: functional
Candida albicans [2] = test: Compound was tested in vitro for antifungal activity against Candida albicans (CY3003); assay type: functional
Cryptococcus neoformans = test: Compound was tested in vitro for antifungal activity against Cryptococcus neoformans (CY1057)
[3] = molecular target: Lanosterol 14-alpha demethylase (Candida albicans) (UniProt P10613); test: In vitro inhibition of cytochrome P450 lanosterol C14 demethylase in Candida albicans CY1005
Aspergillus fumigatus [4] = test: Compound was tested in vitro for antifungal activity against Aspergillus fumigatus (CF1004) in experiment 2; assay type: functional
Candida albicans [5] = test: Compound was tested in vitro for antifungal activity against Cryptococcus neoformans (CY1057) in experiment 2; assay type: functional

Sequence of Lanosterol 14-alpha demethylase (Candida albicans) (P10613 whole entry, looked up): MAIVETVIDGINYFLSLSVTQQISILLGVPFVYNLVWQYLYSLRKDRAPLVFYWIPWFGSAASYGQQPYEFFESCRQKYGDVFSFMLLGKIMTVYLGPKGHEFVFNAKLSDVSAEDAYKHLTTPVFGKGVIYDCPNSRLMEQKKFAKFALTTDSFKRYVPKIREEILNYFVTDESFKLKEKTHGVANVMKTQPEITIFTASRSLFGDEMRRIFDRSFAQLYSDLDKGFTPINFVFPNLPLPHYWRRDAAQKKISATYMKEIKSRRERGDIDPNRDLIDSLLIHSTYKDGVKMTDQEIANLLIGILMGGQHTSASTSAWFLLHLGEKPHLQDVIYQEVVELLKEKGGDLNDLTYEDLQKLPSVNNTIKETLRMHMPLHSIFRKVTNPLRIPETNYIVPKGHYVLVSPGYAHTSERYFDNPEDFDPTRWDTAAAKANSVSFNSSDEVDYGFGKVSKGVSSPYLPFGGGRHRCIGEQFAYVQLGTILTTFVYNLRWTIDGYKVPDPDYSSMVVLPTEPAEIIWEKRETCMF

`CCc1ccc(CC[C@@H]2CCC(C)(C)/C(=N/OC)[C@H]2Cn2cncn2)cc1` showed an IC80 (Aspergillus fumigatus [1]) of 0.064 µg/mL (≈ 0.174 µM), an IC80 (Candida albicans [2]) of 0.024 µg/mL (≈ 0.0651 µM) and an IC80 (Cryptococcus neoformans) of 0.48 µg/mL (≈ 1.3 µM).

In the case of `CO/N=C1\[C@@H](Cn2cncn2)[C@H](COc2ccc(OC(F)(F)F)cc2)CCC1(C)C`, the IC80 (Aspergillus fumigatus [1]) is reported as 0.4 µg/mL (≈ 0.938 µM), the IC80 (Candida albicans [2]) is reported as 0.12 µg/mL (≈ 0.281 µM) and the IC80 (Cryptococcus neoformans) is reported as 7.6 µg/mL (≈ 17.8 µM).

Work on `CC1(C)CC[C@@H](COc2ccc(OC(F)(F)F)cc2)[C@H](Cn2cncn2)/C1=N\O` yielded an IC80 (Aspergillus fumigatus [1]) of 0.17 µg/mL (≈ 0.412 µM), an IC80 (Candida albicans [2]) of 0.35 µg/mL (≈ 0.849 µM) and an IC80 (Cryptococcus neoformans) of over 200 µg/mL.

In the case of `COC1[C@@H](Cn2cncn2)[C@H](COc2ccc(OC(F)(F)F)cc2)CCC1(C)C` (stereo partly specified), the IC80 (Aspergillus fumigatus [1]) is reported as 56 µg/mL (≈ 135 µM), the IC80 (Candida albicans [2]) is reported as 0.18 µg/mL (≈ 0.435 µM) and the IC80 (Cryptococcus neoformans) is reported as 0.51 µg/mL (≈ 1.23 µM).

`CC1(C)CC[C@@H](COc2ccc(OC(F)(F)F)cc2)[C@H](Cn2cncn2)C1OCCO` (stereo partly specified) showed an IC80 (Aspergillus fumigatus [1]) of 110 µg/mL (≈ 248 µM), an IC80 (Candida albicans [2]) of 0.39 µg/mL (≈ 0.879 µM) and an IC80 (Cryptococcus neoformans) of 5.2 µg/mL (≈ 11.7 µM).

`CC(=O)c1ccc(CC[C@@H]2CCC(C)(C)/C(=N/O)[C@H]2Cn2cncn2)cc1` was tested, and the IC80 (Aspergillus fumigatus [1]) was 60 µg/mL (≈ 163 µM), the IC80 (Candida albicans [2]) was over 200 µg/mL and the IC80 (Cryptococcus neoformans) was over 200 µg/mL.

`CCc1ccc(CC[C@@H]2CCC(C)(C)C(OCCO)[C@H]2Cn2cncn2)cc1` (stereo partly specified) showed an IC80 (Aspergillus fumigatus [1]) of over 200 µg/mL, an IC80 (Candida albicans [2]) of 0.00086 µg/mL (≈ 0.00223 µM) and an IC80 (Cryptococcus neoformans) of 0.36 µg/mL (≈ 0.934 µM).

Compound `CCc1ccc(CC[C@@H]2CCC(C)(C)/C(=N/O)[C@H]2Cn2cncn2)cc1` has an IC80 (Aspergillus fumigatus [1]) of 0.0011 µg/mL (≈ 0.0031 µM), an IC80 (Candida albicans [2]) of 0.023 µg/mL (≈ 0.0649 µM) and an IC80 (Cryptococcus neoformans) of 130 µg/mL (≈ 367 µM).

For `CC(O)c1ccc(CC[C@@H]2CCC(C)(C)/C(=N/O)[C@H]2Cn2cncn2)cc1` (stereo partly specified), the IC80 (Aspergillus fumigatus [1]) was 21 µg/mL (≈ 56.7 µM), the IC80 (Candida albicans [2]) was over 200 µg/mL and the IC80 (Cryptococcus neoformans) was over 200 µg/mL.

`CCc1ccc(CC[C@@H]2CCC(C)(C)[C@H](OC)[C@H]2Cn2cncn2)cc1` gave an IC80 (Aspergillus fumigatus [1]) of over 200 µg/mL, an IC80 (Candida albicans [2]) of 0.0042 µg/mL (≈ 0.0118 µM) and an IC50 [3] of 0.01 µg/mL (≈ 0.0281 µM). It also gave an IC80 (Cryptococcus neoformans) of 0.74 µg/mL (≈ 2.08 µM).

Compound `OC(Cn1cncn1)(Cn1cncn1)c1ccc(F)cc1F` [FLUCONAZOLE] has an IC80 (Aspergillus fumigatus [4]) of over 200 µg/mL, an IC80 (Aspergillus fumigatus [1]) of 150 µg/mL (≈ 490 µM) and an IC80 (Candida albicans [2]) of 1.3 µg/mL (≈ 4.24 µM). For the same compound, the IC80 (Candida albicans [5]) was 2.6 µg/mL (≈ 8.49 µM) and the IC80 (Cryptococcus neoformans) was 6.2 µg/mL (≈ 20.2 µM).
